Test results reported in ChEMBL document CHEMBL2074525, “Screening of multidrug-resistance sensitive drugs by in situ brain perfusion in P-glycoprotein-deficient mice” (Pharm Res, 2001).

Target: ATP-dependent translocase ABCB1 (Mus musculus, UniProt P21447)
Assay: TP_TRANSPORTER: increase in blood-brain coefficient in mdr1a(-/-) mouse
Format: functional, organism-based
Conditions: in vivo

Chain of ATP-dependent translocase ABCB1 (P21447 whole entry): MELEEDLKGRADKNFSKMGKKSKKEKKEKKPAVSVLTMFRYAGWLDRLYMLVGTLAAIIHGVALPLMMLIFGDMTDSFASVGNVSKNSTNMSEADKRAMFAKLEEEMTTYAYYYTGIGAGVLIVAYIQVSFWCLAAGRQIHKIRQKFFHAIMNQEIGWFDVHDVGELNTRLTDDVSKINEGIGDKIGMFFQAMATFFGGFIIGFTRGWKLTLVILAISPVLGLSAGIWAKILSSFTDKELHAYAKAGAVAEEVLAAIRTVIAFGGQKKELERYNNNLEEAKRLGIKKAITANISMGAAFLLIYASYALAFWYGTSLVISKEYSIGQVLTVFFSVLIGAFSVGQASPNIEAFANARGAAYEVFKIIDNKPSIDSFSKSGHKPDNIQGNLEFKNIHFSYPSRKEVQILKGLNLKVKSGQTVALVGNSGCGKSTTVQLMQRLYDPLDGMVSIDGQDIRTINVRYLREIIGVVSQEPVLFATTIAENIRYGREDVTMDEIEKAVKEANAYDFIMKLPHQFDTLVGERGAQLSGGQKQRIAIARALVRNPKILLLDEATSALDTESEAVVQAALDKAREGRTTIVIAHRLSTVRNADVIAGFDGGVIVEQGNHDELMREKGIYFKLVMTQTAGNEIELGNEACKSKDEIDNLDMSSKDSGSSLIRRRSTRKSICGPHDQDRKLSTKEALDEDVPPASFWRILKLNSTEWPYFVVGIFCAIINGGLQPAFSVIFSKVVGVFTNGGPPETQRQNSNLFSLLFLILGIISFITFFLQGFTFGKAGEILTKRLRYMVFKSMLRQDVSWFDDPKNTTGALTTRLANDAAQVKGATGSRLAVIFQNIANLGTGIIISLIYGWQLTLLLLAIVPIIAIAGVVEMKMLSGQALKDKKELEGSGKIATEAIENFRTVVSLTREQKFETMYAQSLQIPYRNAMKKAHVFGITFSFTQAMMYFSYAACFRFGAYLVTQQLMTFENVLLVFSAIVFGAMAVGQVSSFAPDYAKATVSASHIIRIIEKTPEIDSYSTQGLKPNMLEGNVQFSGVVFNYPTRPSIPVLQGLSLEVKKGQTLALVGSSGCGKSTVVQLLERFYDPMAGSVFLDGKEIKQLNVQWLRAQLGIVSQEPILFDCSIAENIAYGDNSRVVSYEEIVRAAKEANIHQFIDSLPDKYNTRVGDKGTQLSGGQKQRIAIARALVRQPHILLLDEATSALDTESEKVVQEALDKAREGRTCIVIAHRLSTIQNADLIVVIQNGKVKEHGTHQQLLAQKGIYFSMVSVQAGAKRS

## COc1cccc2c1C(=O)c1c(O)c3c(c(O)c1C2=O)C[C@@](O)(C(=O)CO)C[C@@H]3O[C@H]1C[C@H](N)[C@H](O)[C@H](C)O1 [DOXORUBICIN]
  Activity: substrate [+]
